These results are taken from US9937180B2, “Constrained tricyclic sulfonamides” (ICAHN SCHOOL OF MEDICINE AT MOUNT SINAI, priority 2014, dated 2018).

By GI50 is commonly meant the concentration that inhibits growth by half. The low end stands for more potent growth inhibition, the high end for less potent growth inhibition.

Structures are written as SMILES. Several values for one entry are separate records, joined by “and”; a condition that tells them apart may be missing. Identical values can stand only once.

Series [1] is described as follows: Observation for signs of toxicity and body weights in the mouse tumor assay. The format is in vivo. The conditions noted are these: mice, 100 mg/kg BID oral, 31 days. The procedure:
(§1) To assess the in vivo effects of the compounds, subcutaneous xenograft of prostate cancer cell line LNCaP was generated. Cells (5×10^6, 0.1 mL in 1:1 Matrigel:Media) were injected into the right flank of 8-week-old male SCID nude castrated mice (NCI). Tumor volume was assessed three times a week by caliper measurement. Mice were randomized to treatment groups based on initial tumor volume average of 247 mm^3 per group. Mice were dosed by oral gauvage with 100 mg/kg of Example 3a twice daily (BID) as a suspension in 0.1% Tween80/0.5% sodium carboxymethylcellulose (CMC) in water. […] Mouse body weights were recorded weekly and percentage of mice body weights during treatment was calculated as: weight at each time point/initial weight×100. […] Mice underwent treatment for 31 days and were sacrificed 2 hours after the last dose. Tumors were then excised and cut for both formalin-fixation and snap frozen in liquid nitrogen. No statistically significant toxicity was observed as judged from animal body weights of compound treated groups versus vehicle control group.

A further series deals with H1650. Description: H1650 Cell Viability Assays (GI50 Determination), MTT. The series is classed as cell-based. The conditions noted are these: Homo sapiens, NCI-H1650, H1650 cells, 48 hours after drug treatment. The procedure:
H1650 Cell Viability Assays (GI50 Determination)
Cell viability assays were performed according to Denizot, F. and R. Lang, Rapid colorimetric assay for cell growth and survival: Modifications to the tetrazolium dye procedure giving improved sensitivity and reliability Journal of Immunological Methods, 1986. 89[…]: p. 271-277.
Cells were plated at 150,000 cells per well in a 12 well plate. Twenty-four hours after plating, cells were treated as described with increasing concentrations of drug and control. Forty-eight hours after drug treatment, cells were treated with 100 uL of 3-(4,5-Dimethylthiazol-2-yl)-2,5-diphenyltetrazolium bromide (MTT) and incubated for 2 hours at 37 C. The MTT solution was subsequently replaced with 300 uL of n-propyl alcohol and re-aliquoted to a 96 well plates. Spectrophotometric analysis of each solution was performed using a 96 well plate reader at 600 nm in triplicate.

The subject of series [2] is prostate cancer cell line LNCaP. Put plainly: Mouse Tumor Assay: subcutaneous xenograft of prostate cancer cell line LNCaP. The format is in vivo. The following applies: LNCaP xenograft in male SCID nude castrated mice, 100 mg/kg BID oral gavage. On the procedure: as §1, with “Mouse Tumor Assay To” for “To”
The next series concerns Molt4 cells. Put plainly: MTS Cell Proliferation Assay (CellTiter96 AQueous). The series is classed as cell-based. The conditions noted are these: Homo sapiens, MOLT-4, 48 hours, average of 3 biological replicates. On the procedure:
MTS Cell Proliferation Assay GI50 for Example 3a and 3b for Molt4 cells was measured using the CellTiter96 AQueous Non-Radioactive Cell Proliferation Assay (Promega). Briefly, two technical replicates of 1×10^5 cells suspended in 50 μL RPMI-1640 media were pipetted per well into a 96-well plate for each condition. An equal volume of Example 3a or 3b was dissolved in media or vehicle control (DMSO) was added to each well for final concentration of 0, 5, 10, 15, 20, 30, 40, or 80 μM of 3a or 3b. Cells were allowed to grow for 48 hours at 37° C. with 5% CO2, after which 20 μL of MTS/PMS solution was added to each well and cells were incubated for an additional 4 hrs. At the end of the incubation period, A490 was read on a Biotek uQuant spectrophotometer to measure formazen production. Relative viability was calculated as A490 for each drug condition relative to vehicle alone.

As to `O=S(=O)(N[C@H]1CCC[C@@H](N2c3ccccc3CCc3ccccc32)[C@@H]1O)c1ccc(OC(F)(F)F)cc1` [Example 3a], the “signs of toxicity (mucous diarrhea, abdominal stiffness and weight loss)” value in series [1] was “no adverse signs were observed”. The results for the 50% growth inhibitory concentration (GI50) in the series with H1650 and in the series with Molt4 cells were 5 µM and 6 µM, respectively. In series [2] (31 days), this compound had a Mean Tumor Volume(T) of 485 mm³. Besides, the “% T/C” value in series [2] (end of experiment (31 days), tumor versus vehicle control, 100 mg/kg) is 35% and 34.6%.
